Test results from patent US9388153B2, “Secondary amines as therapeutic agents” (Allergan, Inc., priority 2013, dated 2016).

What was measured:
EP2 [1] = target: T1, EP2 (Homo sapiens, UniProt P43116); test: EP2 cAMP functional assay; type: cell-based; details: NA = Not Active
Source text: (§1) U.S. patent application publication No. 20070129552, published on Jun. 7, 2007, incorporated by reference herein, describes the methods used to obtain the in vitro data in Table 1 below.

EP2 [2] = target: T1, EP2; test: EP2 binding (Ki); details: NA = Not Active; read-out: EP2 Data (EC50 in nM) Ki
Source text: as §1

EP4 = EP4 (Homo sapiens, UniProt P35408); test: EP4 binding (KI); details: NA = Not Active; read-out: EP4 data (EC50 in nM) KI
Source text: as §1

T1 sequence (P43116 whole entry): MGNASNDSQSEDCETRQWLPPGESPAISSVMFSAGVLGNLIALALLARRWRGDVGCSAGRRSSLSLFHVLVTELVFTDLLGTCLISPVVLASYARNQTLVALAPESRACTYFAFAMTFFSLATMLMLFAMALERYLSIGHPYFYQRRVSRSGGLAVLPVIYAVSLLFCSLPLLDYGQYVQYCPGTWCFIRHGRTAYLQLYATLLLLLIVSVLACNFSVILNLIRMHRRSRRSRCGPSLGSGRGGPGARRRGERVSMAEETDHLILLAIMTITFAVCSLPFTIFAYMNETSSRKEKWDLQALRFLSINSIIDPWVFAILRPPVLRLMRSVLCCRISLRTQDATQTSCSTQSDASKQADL
Chain of EP4 (P35408 whole entry): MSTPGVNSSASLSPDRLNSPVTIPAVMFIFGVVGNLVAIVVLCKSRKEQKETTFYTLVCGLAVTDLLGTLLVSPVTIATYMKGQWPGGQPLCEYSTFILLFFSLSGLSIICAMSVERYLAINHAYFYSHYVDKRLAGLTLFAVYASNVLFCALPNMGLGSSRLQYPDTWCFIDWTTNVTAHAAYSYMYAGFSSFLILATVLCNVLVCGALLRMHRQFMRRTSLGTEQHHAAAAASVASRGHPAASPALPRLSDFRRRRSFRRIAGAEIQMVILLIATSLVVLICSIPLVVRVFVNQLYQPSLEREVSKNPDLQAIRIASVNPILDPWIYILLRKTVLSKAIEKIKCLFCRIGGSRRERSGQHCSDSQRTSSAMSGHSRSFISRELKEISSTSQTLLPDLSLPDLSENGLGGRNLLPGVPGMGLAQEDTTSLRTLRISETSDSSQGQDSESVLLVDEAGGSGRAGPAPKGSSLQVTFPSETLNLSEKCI

`O=C(O)COc1cccc(NC2CCc3ccc(-c4cccc(F)c4)cc32)c1` (stereo not drawn) [Example 1, 2-(3-((6-(3-Fluorophenyl)-2,3-dihydro-1H-inden-1-yl)amino)phenoxy)acetic acid] showed an EC50 (EP2 [1]) of 11 nM, a Ki (EP2 [2]) of 80 nM and a Ki (EP4) of 3050 nM.
`CN(c1cccc(OCC(=O)O)c1)C1CCc2ccc(-c3cccc(F)c3)cc21` (stereo not drawn) [Example 3, 2-(3-((6-(3-Fluorophenyl)-2,3-dihydro-1H-inden-1-yl)(methyl)amino)phenoxy)acetic acid] gave an EC50 (EP2 [1]) of 697 nM, a Ki (EP2 [2]) of 1810 nM and a Ki (EP4) of 7320 nM.
`CCN(c1cccc(OCC(=O)O)c1)C1CCc2ccc(-c3cccc(F)c3)cc21` (stereo not drawn) [Example 4, 2-(3-(Ethyl(6-(3-fluorophenyl)-2,3-dihydro-1H-inden-1-yl)amino)phenoxy)acetic acid] was tested, and the EC50 (EP2 [1]) was 8300 nM, the Ki (EP2 [2]) was 3940 nM and the Ki (EP4) was 6640 nM.
`O=C(O)COc1cccc(OC2CCc3ccc(-c4cccc(F)c4)cc32)c1` (stereo not drawn) [Example 5, 2-(3-((6-(3-Fluorophenyl)-2,3-dihydro-1H-inden-1-yl)oxy)phenoxy)acetic acid] gave an EC50 (EP2 [1]) of 747 nM and a Ki (EP2 [2]) of 144 nM.
Work on `O=C(O)COc1cccc(NC2CCCc3ccc(-c4cccc(F)c4)cc32)c1` (stereo not drawn) [Example 6, 2-(3-((7-(3-Fluorophenyl)-1,2,3,4-tetrahydronaphthalen-1-yl)amino)phenoxy)acetic acid] yielded an EC50 (EP2 [1]) of 438 nM, a Ki (EP2 [2]) of 104 nM and a Ki (EP4) of 3630 nM.
Compound `OCCOc1cccc(NC2CCCc3ccc(-c4cccc(F)c4)cc32)c1` (stereo not drawn) [Example 7, 2-(3-((7-(3-Fluorophenyl)-1,2,3,4-tetrahydronaphthalen-1-yl)amino)phenoxy)ethanol] has a Ki (EP4) of 6280 nM.
`O=C(O)COc1cccc(NC2COc3ccc(-c4cccc(F)c4)cc32)c1` (stereo not drawn) [Example 8, 2-(3-((5-(3-Fluorophenyl)-2,3-dihydrobenzofuran-3-yl)amino)phenoxy)acetic acid] was tested, and the EC50 (EP2 [1]) was 0.6 nM, the Ki (EP2 [2]) was 13 nM and the Ki (EP4) was 7990 nM.
